The values below are quoted from earlier work in patent US20080280861A1, “Method of Female Contraception and a Kit For Use Therein” (PANTARHEI BIOSCIENCE B.V., priority 2004, published 2008).

For this data set the following is noted: relative to levonorgestrel dosage; known in the art.
On to `C#C[C@]1(OC(C)=O)CC[C@H]2[C@@H]3CCC4=CC(=NO)CC[C@@H]4[C@H]3CC[C@@]21CC` (mixture of isomers) [Norgestimate], for which the Conversion factor is listed as 1.7. For `C[C@]12CCC(=O)C=C1[C@@H]1C[C@@H]1[C@H]1[C@@H]3[C@@H]4C[C@@H]4[C@@]4(CCC(=O)O4)[C@@]3(C)CC[C@@H]12` [Drospirenone], the Conversion factor is listed as 20.

For `CC(=O)[C@H]1CC[C@H]2[C@@H]3C=CC4=CC(=O)CC[C@@]4(C)[C@@H]3CC[C@]12C` [Dydrogesterone], the Conversion factor is listed as 133. With `C#C[C@]1(O)CC[C@H]2[C@@H]3CCC4=CC(=O)CC[C@@H]4[C@H]3CC[C@@]21C` [Norethisterone], the Conversion factor is 7.
